Data published in US12325690B2, “Compounds for the reducing lipotoxic damage” (Mayo Foundation for Medical Education and Research, priority 2017, dated 2025).
Entries after “also recorded” stand apart in the source; their conditions may differ.

How the values were obtained:
[1] = tested on: acinar cells incubated with GTL; assay: GTL induced acinar injury (LDH leakage); type: cell-based; settings: 10 micromolar
Text: (§1) These lipases form 15-30% of pancreatic lipases.

[2] = tested on: Mouse pancreatic acinar cells; assay: Toxicity study in pancreatic acinar cells (ATP levels, LDH leakage); type: cell-based; settings: 4 hours, 20-200 micromolar range
Procedure: Toxicity studies of the relevant compounds were also performed using by diluting the original ethanol stock 200 mM into the incubation medium for acinar cells (HEPES buffer, pH 7.4, as described by Navina et al) 600 micromolar stock solutions of the compounds in 0.3% ethanol in PBS. These were added to acinar cells at ⅓ dilutions starting at 200 micromolar. Mouse pancreatic acinar ATP levels and LDH leakage were measured over 4 hours and compared to control. Any number positive over control indicates % injury greater than control acini.

[3] = target: T1, carboxyester lipase (hCEL) (Homo sapiens, UniProt P19835); assay: FFA generation by recombinant hCEL; type: biochemical; settings: % FFA generation; read-out: IC50 against hCEL
T1 sequence (P19835 21-753): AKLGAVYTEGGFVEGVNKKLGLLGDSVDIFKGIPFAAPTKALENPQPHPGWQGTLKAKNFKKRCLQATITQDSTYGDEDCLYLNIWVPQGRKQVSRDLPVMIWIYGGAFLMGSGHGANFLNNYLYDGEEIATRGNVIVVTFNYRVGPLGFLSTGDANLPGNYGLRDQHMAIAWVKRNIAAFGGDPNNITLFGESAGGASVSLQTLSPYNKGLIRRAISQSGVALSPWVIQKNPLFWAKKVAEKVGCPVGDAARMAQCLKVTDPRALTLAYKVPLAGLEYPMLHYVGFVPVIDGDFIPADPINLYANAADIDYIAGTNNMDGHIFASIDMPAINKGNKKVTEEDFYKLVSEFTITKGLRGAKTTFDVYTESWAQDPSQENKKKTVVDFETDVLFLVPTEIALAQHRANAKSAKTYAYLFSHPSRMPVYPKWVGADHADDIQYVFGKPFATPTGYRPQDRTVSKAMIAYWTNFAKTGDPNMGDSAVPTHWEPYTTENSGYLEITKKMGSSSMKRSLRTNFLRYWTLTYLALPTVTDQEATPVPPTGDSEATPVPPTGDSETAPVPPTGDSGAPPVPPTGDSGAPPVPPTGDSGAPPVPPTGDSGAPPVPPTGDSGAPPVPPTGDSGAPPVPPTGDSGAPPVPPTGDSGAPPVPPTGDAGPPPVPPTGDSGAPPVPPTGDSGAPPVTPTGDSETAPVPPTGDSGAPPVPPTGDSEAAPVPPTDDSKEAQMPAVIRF
Procedure: (§2) The efficacy of a selection of the prepared analogs was explored to determine their ability to inhibit free fatty acid (FFA) generation from recombinant human lipases while retaining stability. To test these features, the analogs were dissolved in ethanol (200 mM stock) and further diluted to a 600 micromolar (0.3% ethanol) working stock in PBS. The agents were incubated with the recombinant enzymes in serial ⅓ dilutions spanning a range of 200 to 0.3 micromolar for 30 minutes, and then added to the substrate 1 mM glyceryl trilinoleate (GTL) in PBS, pH 7.4 along with cofactor colipase (CLPS; 0.5 mcg/ml).
as §1

[4] = tested on: ob/ob mice with severe pancreatitis; assay: Caerulein-induced severe pancreatitis in obese ob/ob mice; settings: 20 mg/kg single intraperitoneal dose
Procedure: Genetically obese male ob/ob mice (50-60 gm) were used and baseline tail vein blood draw was collected for serum lipase, triglycerides, and BUN (blood urea nitrogen). […] Severe pancreatitis was induced by implanting an alzet pump subcutaneously containing 2.5 mg/ml caerulein, which was administered at a dose of 50 mc/kg/hr. Six hours later a tail vein sample (50 microliters) was tested for serum lipase to verify an increase >3 fold basal.
Animals were sacrificed if they were moribund.

pancreatic lysate lipase = target: T2, pancreatic lysate lipase (Mus musculus, UniProt Q6P8U6); assay: Lipase activity assay with pancreatic lysate (commercial Pointe scientific lipase assay); type: biochemical
T2 construct: efficacy against mouse pancreatic lysates; other: summary of strengths of 767; efficacy as a solution when left overnight; other: solution left overnight; efficacy in the lipase activity assay compared with orlistat when fresh; other: fresh solution; IC50 of orlistat after overnight incubation (nearest tested concentration); other: after overnight incubation; improvement in stability and e
T2 sequence (Q6P8U6 17-465): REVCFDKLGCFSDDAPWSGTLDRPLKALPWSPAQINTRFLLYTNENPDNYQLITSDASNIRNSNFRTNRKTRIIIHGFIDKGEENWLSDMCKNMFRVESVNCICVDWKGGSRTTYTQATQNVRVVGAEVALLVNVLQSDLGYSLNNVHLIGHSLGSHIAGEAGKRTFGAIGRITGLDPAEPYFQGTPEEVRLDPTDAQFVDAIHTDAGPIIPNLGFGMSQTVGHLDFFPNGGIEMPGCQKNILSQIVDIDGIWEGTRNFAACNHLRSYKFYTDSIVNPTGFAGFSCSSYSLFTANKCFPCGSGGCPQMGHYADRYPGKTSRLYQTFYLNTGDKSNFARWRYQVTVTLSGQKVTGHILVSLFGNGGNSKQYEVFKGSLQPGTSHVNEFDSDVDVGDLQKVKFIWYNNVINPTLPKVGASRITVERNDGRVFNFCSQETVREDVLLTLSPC
Procedure: To test the efficacy of these compounds, the agents were dissolved as a 20 mM stock in ethanol, and further diluted to in PBS as a 600 micromolar working stock (3.3% ethanol). This was either used immediately or left at room temperature for 16-20 hours overnight before retesting efficacy. The agents were incubated with a pancreatic lysate in serial ⅓ dilutions spanning a range of 200 to 0.3 micromolars for 30 minutes. 5 microliters of these mixtures were then used to measure lipase activity using a commercial lipase assay (Pointe scientific) containing a monoacyl glycerol lipase in the reagent. The lipase assay was done using reagents in proportion to the recommended protocol. Values were depicted as % maximal lipase activity of the well without any inhibitor.

[5] = target: T3, recombinant human pancreatic tri-acyl glycerol lipase [PNLIP; hPTL] (Homo sapiens, UniProt P16233); assay: FFA generation from glyceryl trilinoleate by recombinant hPNLIP with colipase; type: biochemical
T3 sequence (P16233 17-465): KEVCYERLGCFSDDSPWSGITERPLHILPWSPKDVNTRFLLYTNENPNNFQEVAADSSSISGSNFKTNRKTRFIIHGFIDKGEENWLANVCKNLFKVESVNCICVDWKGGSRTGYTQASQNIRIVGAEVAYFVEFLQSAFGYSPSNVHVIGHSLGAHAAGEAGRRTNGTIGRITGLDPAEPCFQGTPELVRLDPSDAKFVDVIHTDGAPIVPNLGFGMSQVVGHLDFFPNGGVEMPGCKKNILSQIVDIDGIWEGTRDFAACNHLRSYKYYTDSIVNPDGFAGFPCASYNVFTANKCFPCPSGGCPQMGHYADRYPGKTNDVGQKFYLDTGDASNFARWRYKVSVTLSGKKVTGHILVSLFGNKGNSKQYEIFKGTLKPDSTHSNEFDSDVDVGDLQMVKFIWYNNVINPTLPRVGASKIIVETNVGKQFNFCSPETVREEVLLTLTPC
T3 sequence (P04118 23-112 partner): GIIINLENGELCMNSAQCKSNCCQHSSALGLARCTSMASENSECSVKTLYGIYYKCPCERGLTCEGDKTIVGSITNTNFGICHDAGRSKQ
Procedure: as §2

[6] = tested on: Propionibacterium acnes (Strain VPI0389, ATCC); assay: Lipolysis / FFA generation by P. acnes culture; type: cell-based; settings: broth FFA generation and spirit blue agar
Procedure: For medium, 2.0 g of Casein hydrolysate enzymatic digest (Cat #12855, Affymetrix Inc, Ohio, USA), 1.0 g of Yeast extract (Cat #61180-5000, Acros organics, New Jersey, USA) and 0.03 g of Victoria Blue B (Cat #sc-216055, Santa Crutz Biotechnology Inc, California, USA) were dissolved completely in 200 ml of double distilled water with mild heating. The mixed solution was sterilized by autoclaving at 15 lbs pressure (121° C.) for 15 min. The autoclaved solution allowed to cool down to 50° C., then 6 ml of emulsified lipase substrate slowly added with continuous stirring to get an even distribution and stored at 4° C. for P. acnes culture.
Lipase substrate preparation: Lipase substrate was prepared by mixing 200 μl of Tween 80 (Cat #P4780, Sigma, St louis, USA) in 100 ml of warm double distilled water and 25 ml of Cotton seeds oil (Cat #C0145, Spectrum chemical, California, USA). […]
A small part of lyophilized Propionibacterium acnes (Strain VPI0389, ATCC) was added to the medium and allowed to grow at 37° C. for 48 h in a BD GasPak EZ standard incubation container (Cat #260671, Beckton Dickinson, MD, USA) with two anaerobe Sachets (Cat #260683, Beckton Dickinson, MD, USA) which maintained the anaerobic condition within the container. After 48 h of culture, bacterial count was measured by turbidity (OD600 nm) method. […]

[7] = target: T4, recombinant human pancreatic lipase related protein 2 (hPLRP2) (Homo sapiens, UniProt P54317); assay: FFA generation by recombinant hPLRP2; type: biochemical; settings: % FFA generation; read-out: IC50 against hPLRP2
T4 sequence (P54317 18-469): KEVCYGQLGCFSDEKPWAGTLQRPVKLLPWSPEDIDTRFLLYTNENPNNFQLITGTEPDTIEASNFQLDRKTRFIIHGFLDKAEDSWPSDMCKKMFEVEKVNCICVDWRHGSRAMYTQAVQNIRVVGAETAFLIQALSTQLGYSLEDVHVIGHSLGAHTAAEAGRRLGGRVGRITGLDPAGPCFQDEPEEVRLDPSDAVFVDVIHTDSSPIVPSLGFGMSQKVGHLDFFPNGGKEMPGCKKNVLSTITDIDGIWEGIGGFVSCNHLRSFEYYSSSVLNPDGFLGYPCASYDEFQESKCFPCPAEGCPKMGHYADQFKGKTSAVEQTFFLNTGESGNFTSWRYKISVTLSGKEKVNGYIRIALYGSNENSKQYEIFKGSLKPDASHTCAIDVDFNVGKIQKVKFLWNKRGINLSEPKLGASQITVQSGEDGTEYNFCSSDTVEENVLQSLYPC
Procedure: as §2, §1

## CCCCCCCCCCC[C@@H](C[C@@H]1OC(=O)[C@H]1CC)OC(=O)[C@H](C)NC=O [Compound 767]
[1]; LDH leakage
  efficacy in reducing GTL induced acinar injury compared with orlistat: more efficacious
[1]; acinar cells
  toxicity compared with orlistat: less toxic
[2]
  toxicity to acinar cells: lower toxicity
[3]
  IC50: ≤ 2 µM
[4]
  5 day survival: 8/8
  PD (pulse distention, shock): 290±20 μm
  UFAs: 2.4 ± 0.4 mM
  hypertriglyceridemia: without the hypertriglyceridemia
  leucopenia (mice affected): 0/8
  serum calcium: 8.8 ± 1.0 mg/dL
  temperature (hypothermia): 94.1±0.8 ° F.
[4]; caerulein pancreatitis
  BUN (peak): 18.5 ± 0.9 mg/dL
Pancreatic lysate lipase; fresh solution
  efficacy in the lipase activity assay compared with orlistat when fresh: equivalent efficacy
Pancreatic lysate lipase; solution left overnight
  efficacy as a solution when left overnight: significantly retained its efficacy
Pancreatic lysate lipase; summary of strengths of 767
  efficacy against mouse pancreatic lysates: higher efficacy
[5]; in the presence of colipase (CLPS), 1 mM GTL substrate
  IC50 against hPNLIP, fold lower than orlistat or 741: 50 ×
[5]; retention of inhibition after overnight storage
  stability in aqueous solution: best stability; also recorded: better stability in aqueous media
[5]; solution stored overnight, with colipase, read-out: IC50 against hPNLIP when stored overnight
  IC50: < 2 µM
[5]; summary of strengths of 767
  potency against the most prevalent lipase (hPTL): higher potency
[6]
  lipolysis by P. acnes: inhibited
[7]
  IC50: ≤ 2 µM
